Converted amounts (≈) assume the structure as drawn.
Assays:
P. aeruginosa 39324 = assay: Augmentation assay: MIC of erythromycin (Table 2), P. aeruginosa 39324; type: cell-based; settings: Pseudomonas aeruginosa, 39324, 24 h, read-out: MIC of erythromycin, P. aeruginosa 39324
Experimental: (§1) Stock solutions 1-2 mg/mL of test compounds are prepared in distilled water, filter-sterilized through a […] filter and diluted in CAMHB to the desired starting concentration. Aliquots of each test compound (0.1 mL), at 2× the final concentration, are added to the first rows of 96 well plates. The remaining wells of these plates are charged with 0.1 mL aliquots of each test compound at the desired final concentration. Subsequently, 0.1 mL of solutions of erythromycin, gentamicin, or vancomycin, prepared in CAMHB, are added to the first rows of these plates and serially diluted.
(§2) The wells are inoculated in duplicate with each of four antibiotic indicator strains prepared as described previously above. The final concentrations of antibiotics tested in these experiments range from 0.185-250 μg per mL. Plates containing each of the antibiotics serially diluted in CAMHB alone are also inoculated with antibiotic indicator strains to determine the MIC of erythromycin, gentamicin and vancomycin in the absence of the compounds of the invention. The plates are sealed with plastic tape, incubated in for 24 h at 37° C., visually inspected for bacterial growth. The MIC of erythromycin, gentamicin and vancomycin for each of the indicator strains in the presence or absence of test compound is subsequently determined.

E. coli 25922 = assay: Augmentation assay: MIC of erythromycin (Table 2), E. coli 25922; type: cell-based; settings: Escherichia coli, 25922, 24 h, read-out: MIC of erythromycin, E. coli 25922
Experimental: as §1, §2

P. aeruginosa 27853 = assay: Augmentation assay: MIC of erythromycin (Table 2), P. aeruginosa 27853; type: cell-based; settings: Pseudomonas aeruginosa, 27853, 24 h, read-out: MIC of erythromycin, P. aeruginosa 27853
Experimental: as §1, §2

[1] = test system: Pseudomonas aeruginosa 27853; assay: Determination of MIC against bacteria (Table 1), P. aeruginosa 27853; type: cell-based; settings: Pseudomonas aeruginosa, 27853, 24 h, read-out: minimum inhibitory concentration (MIC), P. aeruginosa 27853
Experimental: (§3) Antibiotic indicator strains Escherichia coli strain 25922, Enterococcus faecalis 29212, Pseudomonas aeruginosa 27853, and Staphylococcus aureus 29213 are obtained from the American Type Tissue Culture Collection (ATCC) in Rockville, Md. The cystic fibrosis isolate, Pseudomonas aeruginosa 39324, is also obtained from ATCC. Bacteria are routinely cultivated in cation-supplemented Mueller-Hinton broth (CAMHB) or agar at 37° C.
(§4) The minimum inhibitory concentration (MIC) of glycosylated and non-glycosylated steroidal polyamines for antibiotic indicator strains is determined by dissolving the test compounds in deionized water to a final concentration of 1 mg per mL. […] These solutions are sterilized by filtration through 0.22 micron syringe filters.
(§5) Stock solutions of individual compounds are serially diluted (two-fold) in sterile CAMHB in 96-well tissue culture dishes (Falcon) and inoculated with antibiotic indicator strains that are prepared as described below.
(§6) Antibiotic indicator strains are grown in 5 mL of CAMHB for 3-4 h at 37° C. with shaking (200 rpm) on a New Brunswick rotary shaker. Bacteria are adjusted to a turbidity that matched a 0.5 McFarland standard (ca. 10^8 CFU per mL) in sterile 0.85% saline. These bacterial suspensions are diluted 1:20 in sterile 0.85% saline and 10 μL (ca. […]) of each suspension is used to inoculate individual wells of a 96 well plate that contained different concentrations of the test compounds. Following inoculation, the plates are sealed with plastic tape, incubated for 24 h at 37° C. and visually inspected for bacterial growth. CAMHB inoculated with each of the antibiotic test strains and uninoculated CAMBH plus each of the test compounds served as positive and negative controls.

[2] = test system: Staphylococcus aureus 29213; assay: Determination of MIC against bacteria (Table 1), S. aureus 29213; type: cell-based; settings: Staphylococcus aureus, 29213, 24 h, read-out: minimum inhibitory concentration (MIC), S. aureus 29213
Experimental: as §3, §4, §5, §6

[3] = test system: Escherichia coli strain 25922; assay: Determination of MIC against bacteria (Table 1), E. coli 25922; type: cell-based; settings: Escherichia coli, 25922, 24 h, read-out: minimum inhibitory concentration (MIC), E. coli 25922
Experimental: as §3, §4, §5, §6

[4] = test system: Enterococcus faecalis 29212; assay: Determination of MIC against bacteria (Table 1), E. faecalis 29212; type: cell-based; settings: Enterococcus faecalis, 29212, 24 h, read-out: minimum inhibitory concentration (MIC), E. faecalis 29212
Experimental: as §3, §4, §5, §6

[5] = test system: Pseudomonas aeruginosa 39324; assay: Determination of MIC against bacteria (Table 1), P. aeruginosa 39324 (cystic fibrosis isolate); type: cell-based; settings: Pseudomonas aeruginosa, 39324, 24 h, read-out: minimum inhibitory concentration (MIC), P. aeruginosa 39324
Experimental: as §3, §4, §5, §6

[6] = Stability of a 5% solution of the trifluoroacetate salt at room temperature; type: physicochemical
Experimental: (§7) To a solution of spermine (0.8 g, 2 mmol) and triethylamine (0.3 mL) in 5 mL of DMF is added dropwise the N-oxysuccinimidechenodeoxycholate (1.0 g, 2 mmol) in 5 mL of DMF. The mixture is stirred overnight at room temperature, then poured into DCM (100 mL). The precipitate of the hydroxysuccinimide is filtered, and the filtrate is evaporated to give a liquid phase, which is poured into water (100 mL). The precipitate of the product is obtained. It is dissolved in MeOH (5 mL) and passed through a CHP-20 reverse-phase column. A […] in water solvent system is used to elute the product. The solvent is removed by evaporation, and the residue is dissolved in 1 mL of trifluoroacetic acid. The resulting solution is diluted up to 10 mL with water, filtered, and the filtrate subsequently lyophilized to afford 0.9 g (50% yield) of a solid (m.p. 96°-100° C.). […] A 5% solution of the trifluoroacetate salt of the chenodeoxycholic acid-spermine conjugate is stable at room temperature over about 12-24 h, after which a precipitate of the base separates as a slurry. TLC (MeOH:i-PrNH2 :DCM 1:1:2) Rf 0.7. IR (KBr): 3406, 2939, 2869, 1778 (COOH), 1680 (CONH--), 1553, 1458, 1196, 834, 722 cm^-1. ^1 H NMR (D2 O): δ3.75 (s, 1H), 3.4 (s, 1H), 2.8-3.15 (m, 12H), 2.2-1.2 (m, 39H), 0.9 (d, 3H), 0.86 (s, 3H), 0.55 (s, 3H). Fab MS: (M+Na^+)=598. Anal. Calc. for C34 H64 N4 O3.3CF3 COOH: C 52.5; H 7.29; N 6.09. […]

Solubility in water = type: physicochemical; settings: trifluoroacetate salt
Experimental: as §7

Compound	MIC (P. aeruginosa 39324)	MIC (E. coli 25922)	MIC (P. aeruginosa 27853)	MIC [1]	MIC [2]	MIC [3]	MIC [4]	MIC [5]	stability of 5% solution, time before a precipitate of the base separates [6]	solubility in water (Solubility in water)
CC[C@H]1OC(=O)[C@H](C)[C@@H](O[C@H]2C[C@@](C)(OC)[C@@H](O)[C@H](C)O2)[C@H](C)[C@@H](O[C@@H]2O[C@H](C)C[C@H](N(C)C)[C@H]2O)[C@](C)(O)C[C@@H](C)C(=O)[C@H](C)[C@@H](O)[C@]1(C)O [Erythromycin, erythromycin]	> 250 µg/mL	125 µg/mL	> 250 µg/mL	–	–	–	–	–	–	–
C[C@H](CCC(=O)NCCCNCCCCNCCCN)[C@H]1CC[C@H]2[C@@H]3[C@H](O)C[C@@H]4C[C@H](O)CC[C@]4(C)[C@H]3CC[C@]12C [Compound H, 3α,7α-dihydroxy-12-deoxy-5β-cholan-24-oic acid, N-(4,9-diaza-12-aminododecyl)amide]	–	–	–	12.5 µg/mL (≈ 21.7 µM)	6.25 µg/mL (≈ 10.8 µM)	25 µg/mL (≈ 43.3 µM)	3.12 µg/mL (≈ 5.41 µM)	50 to 100 µg/mL (≈ 86.7 to 173 µM)	12 to 24 h	soluble in water

From patent US5744453A, “Polyamine conjugates for treatment of infection” (priority 1996, dated 1998)
